Molecules are shown by their SMILES.

Sequence of Human TASK-1 channels (O14649 whole entry): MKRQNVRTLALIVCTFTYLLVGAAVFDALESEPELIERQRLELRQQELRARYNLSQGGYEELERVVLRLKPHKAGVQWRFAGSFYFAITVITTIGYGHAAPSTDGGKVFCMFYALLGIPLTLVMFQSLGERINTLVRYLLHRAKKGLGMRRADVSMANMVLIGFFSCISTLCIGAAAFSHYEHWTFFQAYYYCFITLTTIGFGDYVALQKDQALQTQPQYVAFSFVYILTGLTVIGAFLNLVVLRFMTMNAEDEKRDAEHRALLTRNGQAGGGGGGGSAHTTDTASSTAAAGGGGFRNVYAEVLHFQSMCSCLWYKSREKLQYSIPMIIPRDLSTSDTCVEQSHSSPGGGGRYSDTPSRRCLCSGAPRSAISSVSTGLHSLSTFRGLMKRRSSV

For one test, the target named is Human TASK-1 channels (Homo sapiens (Human), UniProt O14649). As to the kind of experiment: Determination of the activity on the TASK-1 channel in Xenopus oocytes (two-microelectrode voltage clamp). In kind it is cell-based. The following applies: compound concentration 5 μM. The method in brief:
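Current during 500 ms pulses to 40 mV from a −90 mV hold was recorded in oocytes expressing human TASK-1 for two days after cRNA injection. Compounds were added cumulatively to the ND96 bath (pH 7.4, room temperature). IC50 came from dose-response fitting of inhibition relative to pre-compound current.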
Broadly, the inhibition is the change of the read-out against control, counted positive when it falls. On to `CCN(Cc1nnn(C)n1)C(=O)c1cc(C(=O)N[C@H](C)c2ccc(F)cc2)n2c1COCC2` [16rt, 3,4-Dihydro-1H-pyrrolo[2,1-c][1,4]oxazine-6,8-dicarboxylic acid 8-[ethyl-(2-methyl-2H-tetrazol-5-ylmethyl)-amide] 6-{[(R)-1-(4-fluoro-phenyl)-ethyl]-amide}], for which testing at 5 µM gave an inhibition of 72%.
The same measure, in the same setting: then `CC[C@H](NC(=O)c1cc(C(=O)N2CCC[C@@H]2C)n2c1COCC2)c1ccc(C(F)(F)F)c(F)c1` [16bn, 6-((S)-2-Methyl-pyrrolidine-1-carbonyl)-3,4-dihydro-1H-pyrrolo[2,1-c][1,4]oxazine-8-carboxylic acid [(S)-1-(3-fluoro-4-trifluoromethyl-phenyl)-propyl]-amide], with 63%; and `CC[C@@H](NC(=O)c1cc(C(=O)N2CCC[C@@H]2C)n2c1COCC2)c1ncccn1` [16bd, 6-((S)-2-Methyl-pyrrolidine-1-carbonyl)-3,4-dihydro-1H-pyrrolo[2,1-c][1,4]oxazine-8-carboxylic acid ((R)-1-pyrimidin-2-yl-propyl)-amide], with 47%.
`CC(C)[C@@H](NC(=O)c1cc(C(=O)NCc2ncco2)c2n1CCOC2)c1ccc(F)cc1` [16ll, 3,4-Dihydro-1H-pyrrolo[2,1-c][1,4]oxazine-6,8-dicarboxylic acid 6-{[(R)-1-(4-fluoro-phenyl)-2-methyl-propyl]-amide} 8-[(oxazol-2-ylmethyl)-amide]] yielded an inhibition at 5 µM of 86%.

Still in this test, the particulars now being: human TASK-1 expressed in Xenopus oocytes, room temperature; read-out: IC50 value for TASK-1 inhibition.
Broadly, the IC50 is the midpoint of a concentration-inhibition curve. In the case of `CC[C@@H](NC(=O)c1cc(C(=O)N2CCC[C@@H]2C(=O)OC(C)C)n2c1COCC2)c1ccccc1` [16n], the IC50 stood at 140 nM.
On to `CC[C@@H](NC(=O)c1cc(C(=O)N2CCC[C@@H]2C)n2c1COCC2)c1ccccc1` [16a, 6-((S)-2-Methyl-pyrrolidine-1-carbonyl)-3,4-dihydro-1H-pyrrolo[2,1-c][1,4]oxazine-8-carboxylic acid ((R)-1-phenyl-propyl)-amide], for which the IC50 is 69 nM.
On to `C[C@@H](NC(=O)c1cc(C(=O)N[C@H](C)c2ncccn2)c2n1CCOC2)c1ccc(F)cc1` (racemic) [16dy, 3,4-Dihydro-1H-pyrrolo[2,1-c][1,4]oxazine-6,8-dicarboxylic acid 6-{[(R)-1-(4-fluoro-phenyl)-ethyl]-amide} 8-[((R)-1-pyrimidin-2-yl-ethyl)-amide]], for which the IC50 was 1500 nM.
Still for that read-out and setting: then `CC[C@@H](NC(=O)c1cc(C(=O)N2CCCC2(C)C)n2c1COCC2)c1ccccc1` [16fb, 6-(2,2-Dimethyl-pyrrolidine-1-carbonyl)-3,4-dihydro-1H-pyrrolo[2,1-c][1,4]oxazine-8-carboxylic acid ((R)-1-phenyl-propyl)-amide], with 130 nM.
The same measure, in the same setting: then `CC[C@@H](NC(=O)c1cc(C(=O)NCC2CC2)n2c1COCC2)c1ccccc1Cl` [16ld, 3,4-Dihydro-1H-pyrrolo[2,1-c][1,4]oxazine-6,8-dicarboxylic acid 8-{[(R)-1-(2-chloro-phenyl)-propyl]-amide} 6-cyclopropylmethyl-amide], with 80 nM; and `CC[C@@H](NC(=O)c1cc(C(=O)N2CCCC2)n2c1COCC2)c1ccc(F)cc1Cl` [16db, 6-(Pyrrolidine-1-carbonyl)-3,4-dihydro-1H-pyrrolo[2,1-c][1,4]oxazine-8-carboxylic acid [(R)-1-(2-chloro-4-fluoro-phenyl)-propyl]-amide], with 90 nM; and `CC[C@@H](NC(=O)c1cc(C(=O)NCc2cnccn2)n2c1COCC2)c1ccccc1` [16gt, 3,4-Dihydro-1H-pyrrolo[2,1-c][1,4]oxazine-6,8-dicarboxylic acid 8-[((R)-1-phenyl-propyl)-amide] 6-[(pyrazin-2-ylmethyl)-amide]], with 310 nM.
Still for that read-out and setting: then `CC[C@@H](NC(=O)c1cc(C(=O)N[C@H](CC)c2ccccc2)n2c1COCC2)c1ccc(C(F)(F)F)nc1` [16jy, 3,4-Dihydro-1H-pyrrolo[2,1-c][1,4]oxazine-6,8-dicarboxylic acid 6-[((R)-1-phenyl-propyl)-amide] 8-{[(R)-1-(6-trifluoromethyl-pyridin-3-yl)-propyl]-amide}], with 180 nM; and `CC[C@@H](NC(=O)c1cc(C(=O)Nc2cnoc2)c2n1CCOC2)c1ccccc1` [16jv, 3,4-Dihydro-1H-pyrrolo[2,1-c][1,4]oxazine-6,8-dicarboxylic acid 8-isoxazol-4-ylamide 6-[((R)-1-phenyl-propyl)-amide]], with 210 nM.
For `CC(C)[C@@H](NC(=O)c1cc(C(=O)N[C@@H](C)c2ncccn2)c2n1CCOC2)c1ccc(F)cc1` (racemic) [16lr, 3,4-Dihydro-1H-pyrrolo[2,1-c][1,4]oxazine-6,8-dicarboxylic acid 6-{[(R)-1-(4-fluoro-phenyl)-2-methyl-propyl]-amide} 8-[((S)-1-pyrimidin-2-yl-ethyl)-amide]], the IC50 worked out at 360 nM.
On the same count and under the same terms, then `CC[C@@H](NC(=O)c1cc(C(=O)N2CCC[C@@H]2C)n2c1SCC2)c1ccccc1` [16ks, 5-((S)-2-Methyl-pyrrolidine-1-carbonyl)-2,3-dihydro-pyrrolo[2,1-b]thiazole-7-carboxylic acid ((R)-1-phenyl-propyl)-amide], with 37 nM; and `CC[C@@H](NC(=O)c1cc(C(=O)N[C@H](CC)c2ncccn2)c2n1CCOC2)c1ccccc1` [16kd, 3,4-Dihydro-1H-pyrrolo[2,1-c][1,4]oxazine-6,8-dicarboxylic acid 6-[((R)-1-phenyl-propyl)-amide] 8-[((R)-1-pyrimidin-2-yl-propyl)-amide]], with 140 nM.
Same read-out and setting: then `CC[C@@H](NC(=O)c1cc(C(=O)N(CC)CC)n2c1COCC2)c1ccccc1` [16gn, 3,4-Dihydro-1H-pyrrolo[2,1-c][1,4]oxazine-6,8-dicarboxylic acid 6-diethylamide 8-[((R)-1-phenyl-propyl)-amide]], with 250 nM.
On the same count and under the same terms, then `CC[C@@H](NC(=O)c1cc(C(=O)N[C@H](C)C2CC2)n2c1COCC2)c1ccc(C(F)(F)F)nc1` [16nz, 3,4-Dihydro-1H-pyrrolo[2,1-c][1,4]oxazine-6,8-dicarboxylic acid 6-[((R)-1-cyclopropyl-ethyl)-amide] 8-{[(R)-1-(6-trifluoromethyl-pyridin-3-yl)-propyl]-amide}], with 2200 nM; and `CC[C@@H](NC(=O)c1cc(C(=O)NCc2cccc(C(=O)OC)c2)n2c1COCC2)c1ccccc1` [16iq, 3-({[8-((R)-1-Phenyl-propylcarbamoyl)-3,4-dihydro-1H-pyrrolo[2,1-c][1,4]oxazine-6-carbonyl]-amino}-methyl)-benzoic acid methyl ester], with 330 nM.
For `CC[C@@H](NC(=O)c1cc(C(=O)N[C@H](C)c2ccc(F)cc2)c2n1CSC2)c1ccccc1` [16kw, 1H-Pyrrolo[1,2-c]thiazole-5,7-dicarboxylic acid 7-{[(R)-1-(4-fluoro-phenyl)-ethyl]-amide} 5-[((R)-1-phenyl-propyl)-amide]], the IC50 came out at 95 nM.
On the same count and under the same terms, then `CC[C@@H](NC(=O)c1cc(C(=O)N2CC[C@H](OCC3CC3)C2)n2c1COCC2)c1ccccc1` [16ev, 6-((S)-3-Cyclopropylmethoxy-pyrrolidine-1-carbonyl)-3,4-dihydro-1H-pyrrolo[2,1-c][1,4]oxazine-8-carboxylic acid ((R)-1-phenyl-propyl)-amide], with 330 nM.

The values above are taken from patent publication US9284333B2, “Fused pyrroledicarboxamides and their use as pharmaceuticals” (SANOFI, priority 2012, dated 2016).
